Patent US6432913B1, “Polypeptide of protein p140 and DNAs encoding it” (Ono Pharmaceutical Co., Ltd., priority 1993, dated 2002)

Key:
protein p140 [1] = experiment: Effects of various test compounds on p140 phosphorylation in rat L6 cells; type: cell-based; parameters: dose or concentration left out as unconfirmed
Method: Rat L6 cells (1×10^5 cells/dish) were incubated in the Dulbecco's modified Eagle's medium (containing 10% BFS) at 37° C. under 5% CO2 atmosphere for 8 days. The cells used were skeletal muscle myoblast-differentiated muscle cells. After treating the differentiated skeletal muscle cells in serum-free Dulbecco's modified Eagle's media for 4 hr, various test compounds (10 mM; except insulin,1 mM) were added before the cultures were further incubated for a fixed interval. After the cultures were rinsed with ice-cold phosphate buffer, cells were lysed with phosphate buffer containing 0.5% octa (ethylene glycol) ether (C12E8). The pp140 was recovered by cephalobeads bound with phosphotyrosine antibody (Transformation Corp.) prior to elution and detection with phenyl phosphate and western blotting method, respectively. The band content of pp140 was determined by a densitometer using purified pp140 as the standard.

Rat L6 cells = experiment: Enhancement activity on glucose uptake (3H-2-deoxyglucose) in rat L6 cells; type: cell-based; conditions: 2 hr, 5 mM 3H-2-deoxyglucose, initial 3 min
Method: Rat L6 cells (1×10^5 cells/dish) were incubated in Dulbecco's modified Eagle's medium (containing 10% BFS) at 37° C. under 5% C02 atmosphere for 8 days. The cells used were skeletal muscle myoblast-differentiated skeletal muscle cells. After treating the differentiated skeletal muscle cells in serum-free Dulbecco's modified Eagle's medium for 2 hr, various test compounds (10 mM; except insulin,l mM) were added before the cultures were further incubated for a fixed interval of 2 hr. Cultures thereafter treated with Crebs-Ringer phosphate buffer (pH: 7.4) for 20 min were further incubated with 5 mM ^3H-2-deoxyglucose (0.05 mCi/ml). At the initial 3 min after incubation, the uptake radioactivity content in cells was determined with a liquid syntillation counter.

[2] = test system: streptozotocin (STZ)-induced diabetic rats; experiment: Effects of vitamin K5 on diabetes in streptozotocin (STZ) rats; type: in vivo, rat; conditions: vitamin K5 i.p. once daily for 3 consecutive days
Method: The diabetes model using streptozotocin (STZ) was established in male Wistar rats (STZ rats). After administering various intraperitoneal (i.p.) daily doses of vitamin K5 for 3 consecutive days in STZ rats (one administration per day), the glucose, neutral fat and cholesterol contents in blood were determined. Accordingly, STZ and normal rats were administered with the vehicle (physiological saline) at identical daily rate and duration prior to determination of similar hematic indices mentioned above. In addition, rats administered subcutaneously (s.c.) with insulin (8 U/kg) daily (one administration per day) for 3 consecutive days were used as positive controls.

protein p140 [3] = experiment: Tyrosine phosphorylation of p140 in rat L6 cells (anti-phosphotyrosine recovery, western blot, densitometry); type: cell-based; conditions: for p140 tyrosine phosphorylation (band content of pp140): rat L6 cells, amylin 100 pM 24 hr before insulin where added
Method: (§1) Using the Dubecco's modified Eagle's medium (containing 10% BFS), various cells (1×10^5 cells/dish) were incubated at 37° C. under 5% CO2 atmosphere for 5˜8 days. The cells were skeletal muscle cells differentiated from skeletal muscle myoblasts. The differentiated cells previously treated in serum-free Dulbecco's modified Eagle's medium for 4 hr was incubated with and without amylin (100 pM) before further incubation for 24 hr. Cultures treated with insulin (100 nM) thereafter were incubated for a fixed interval (10 or 60 min). After the cultures were rinsed with ice-cold phosphate buffer, cells were lysed with phosphate buffer containing 0.5% octa (ethylene glycol) ether (C12E8). The pp140 was recovered by sepharobeads bound with phosphothyrosine antibody (Transformation Corp.) prior to elution and detection with phenyl phosphate and western blotting method, respectively. The band content of pp140 was determined by a densitometer using purified pp140 as the standard. In the Table 1, cultures were treated with amylin (100 pM) 24 hr before insulin (100 nM) was added.

protein p140 [4] = experiment: Tyrosine phosphorylation of p140 in rat FaO hepatocytes; type: cell-based; conditions: for p140 tyrosine phosphorylation (band content of pp140): rat FaO cells, amylin 100 pM 24 hr before insulin where added
Method: as §1

protein p140 [5] = experiment: Tyrosine phosphorylation of p140 in human A673 muscle cells; type: cell-based; conditions: for p140 tyrosine phosphorylation (band content of pp140): human A 678 cells, amylin 100 pM 24 hr before insulin where added
Method: as §1

protein p140 [6] = experiment: Tyrosine phosphorylation of p140 in human HepG2 hepatocytes; type: cell-based; conditions: for p140 tyrosine phosphorylation (band content of pp140): human HepG2 cells, amylin 100 pM 24 hr before insulin where added
healthy rats = experiment: Amylin administration to healthy rats for 7 days; type: in vivo, rat; conditions: amylin 0.1 mg/kg, i.p., t.i.d.
Source text: (§2) These observations were accompanied by decreases in both incidences, glucose transporter 4 (Glut 4) quantity and synthesized glycogen content (less than 50% decrease compared to that of control group) with 1.7-fold increase in the blood glucose content.

L6 cells = experiment: Glucose uptake in L6 cells with amylin administration; type: cell-based; conditions: L6 cells of rat skeletal muscle myoblasts
Source text: as §2

Row | Compound | Amount of tyrosine phosphorylated p140 (protein p140 [1]; 0 min) | Amount of tyrosine phosphorylated p140 (protein p140 [1]; 3 min) | Amount of tyrosine phosphorylated p140 (protein p140 [1]; 10 min) | Amount of tyrosine phosphorylated p140 (protein p140 [1]; 60 min) | Activity on glucose uptake (Rat L6 cells) | other results
1 | CC(C)CCOc1ccc(C=C2SC(=S)NC2=O)cc1 [5-(4-isoamyloxybenzylidene)rhodanine] | 400 copy/cell | 3200 copy/cell | 2250 copy/cell | 1600 copy/cell | 98.4 pmol/mg protein/min | 
2 | O=C1NC(=S)SC1c1ccccc1 (stereo not shown) [5-phenylrhodanine] | 350 copy/cell | 1600 copy/cell | 1250 copy/cell | 650 copy/cell | 76.8 pmol/mg protein/min | 
3 | CC1=CC(=O)c2ccccc2C1=O [Vitamin K3, 2-methyl-1,4-naphthoquinone] | 350 copy/cell | 3650 copy/cell | 1800 copy/cell | 750 copy/cell | 60.9 pmol/mg protein/min | 
4 | Cc1cc(N)c2ccccc2c1O [Vitamin K5, 4-amino-2-methyl-1-naphthol] | 400 copy/cell | 3850 copy/cell | 2850 copy/cell | 1600 copy/cell | 67.5 pmol/mg protein/min | cholesterol content in blood [2]: elicited recovery of changes; glucose content in blood [2]: elicited recovery of changes; neutral fat content in blood [2]: elicited recovery of changes
5 | Insulin | 350 copy/cell | 1850 copy/cell | 2600 copy/cell | 1650 copy/cell | 106.8 pmol/mg protein/min | p140 tyrosine phosphorylation (band content of pp140) (protein p140 [3]; insulin 100 nM for 10 min): 2400; p140 tyrosine phosphorylation (band content of pp140) (protein p140 [3]; insulin 100 nM for 60 min): 1000; p140 tyrosine phosphorylation (band content of pp140) (protein p140 [4]; insulin 100 nM for 10 min): 2000; p140 tyrosine phosphorylation (band content of pp140) (protein p140 [4]; insulin 100 nM for 60 min): 1400; p140 tyrosine phosphorylation (band content of pp140) (protein p140 [5]; insulin 100 nM for 10 min): 2500; p140 tyrosine phosphorylation (band content of pp140) (protein p140 [5]; insulin 100 nM for 60 min): 1900; p140 tyrosine phosphorylation (band content of pp140) (protein p140 [6]; insulin 100 nM for 10 min): 2100; p140 tyrosine phosphorylation (band content of pp140) (protein p140 [6]; insulin 100 nM for 60 min): 1200
6 | amylin |  |  |  |  |  | Effect on insulin-induced incidence of pp140 (protein p140 [3]; rat L6 cells incubated with insulin within 10 min): antagonized; Effect on insulin-induced incidence of pp140 (protein p140 [4]; rat hepatocytes, FaO cells): similarly confirmed; Effect on insulin-induced incidence of pp140 (protein p140 [5]; human muscle cells (A673 cells)): similarly confirmed; Effect on insulin-induced incidence of pp140 (protein p140 [6]; human hepatocytes (HepG2 cells)): similarly confirmed; glucose transporter 4 (Glut 4) quantity (healthy rats): decreases; increase in the blood glucose content (healthy rats): 1.7 fold; insulin receptor population (healthy rats): dramatic decreases; secreted insulin quantity (healthy rats): dramatic decreases; synthesized glycogen content, decrease compared to control group (healthy rats): less than 50%; glucose uptake in the cells (L6 cells): decreased glucose uptake
